Like-named read-outs stand apart in the source and are kept apart here.
Key:
Digitaria sanguinalis = settings: for plant mortality, measured value: Digitaria sanguinalis
Text: (§1) X is % damage by uracil compound (a) of formula 1 at the rate of application of p kg/ha; Y is % damage by conventional herbicidal compound (b) at the rate of application of q kg/ha; and E is the expected damage caused by compounds (a) and (b) at a rate of application of p and q kg/ha.
(§2) The expected activity for a given combination of two herbicides can be calculated using equation 1 above.

Echinochloa crus = settings: for plant mortality, measured value: Echinochloa crus
Text: as §1, §2

Xanthium spinosum = assay: whole plant or invertebrate; settings: for pest or weed control at 25 g/ha: read-out: Data (measured value) Xanthium spinosum, 25 g/ha
Text: as §1, §2

Aeschynomene indica = assay: whole plant or invertebrate; settings: for pest or weed control at 25 g/ha: read-out: Data (measured value) Aeschynomene indica, 25 g/ha
Text: as §1, §2

Abutilon theophrasti = assay: whole plant or invertebrate; settings: for pest or weed control at 25 g/ha: read-out: Data (measured value) Abutilon theophrasti, 25 g/ha
Text: as §1, §2

[1] = read-out: plant mortality, measured value, 375 g/ha
[2] = read-out: plant mortality, measured value, 750 g/ha
[3] = read-out: plant mortality, measured value, 1500 g/ha
[4] = read-out: plant mortality, measured value, 50 g/ha
[5] = read-out: plant mortality, measured value, 100 g/ha
[6] = read-out: plant mortality, measured value, 200 g/ha

Cc1cc(Cl)ccc1OC(C)C(=O)O (stereo not drawn) [Mecoprop]
Data (measured value) Digitaria sanguinalis (Digitaria sanguinalis; 200 g/ha): 0 | Data (measured value) Digitaria sanguinalis (Digitaria sanguinalis; 400 g/ha): 0 | Data (measured value) Digitaria sanguinalis (Digitaria sanguinalis; 800 g/ha): 0 | Data (measured value) Echinochloa crus (Echinochloa crus; 200 g/ha): 0 | Data (measured value) Echinochloa crus (Echinochloa crus; 400 g/ha): 0 | Data (measured value) Echinochloa crus (Echinochloa crus; 800 g/ha): 0 | pest or weed control at 200 g/ha (Xanthium spinosum; read-out: Data (measured value) Xanthium spinosum, 200 g/ha): 9% | pest or weed control at 400 g/ha (Xanthium spinosum; read-out: Data (measured value) Xanthium spinosum, 400 g/ha): 19% | pest or weed control at 800 g/ha (Xanthium spinosum; read-out: Data (measured value) Xanthium spinosum, 800 g/ha): 45% | pest or weed control at 200 g/ha (Aeschynomene indica; read-out: Data (measured value) Aeschynomene indica, 200 g/ha): 8% | pest or weed control at 400 g/ha (Aeschynomene indica; read-out: Data (measured value) Aeschynomene indica, 400 g/ha): 24% | pest or weed control at 800 g/ha (Aeschynomene indica; read-out: Data (measured value) Aeschynomene indica, 800 g/ha): 55% | pest or weed control at 200 g/ha (Abutilon theophrasti; read-out: Data (measured value) Abutilon theophrasti, 200 g/ha): 14% | pest or weed control at 400 g/ha (Abutilon theophrasti; read-out: Data (measured value) Abutilon theophrasti, 400 g/ha): 29% | pest or weed control at 800 g/ha (Abutilon theophrasti; read-out: Data (measured value) Abutilon theophrasti, 800 g/ha): 64%

Nc1c(Cl)c(Cl)nc(C(=O)O)c1Cl [Picloram]
Data (measured value) Digitaria sanguinalis (Digitaria sanguinalis; 25 g/ha): 0 | Data (measured value) Digitaria sanguinalis (Digitaria sanguinalis; 50 g/ha): 0 | Data (measured value) Digitaria sanguinalis (Digitaria sanguinalis; 100 g/ha): 0 | Data (measured value) Echinochloa crus (Echinochloa crus; 25 g/ha): 0 | Data (measured value) Echinochloa crus (Echinochloa crus; 50 g/ha): 0 | Data (measured value) Echinochloa crus (Echinochloa crus; 100 g/ha): 0 | pest or weed control at 25 g/ha (Xanthium spinosum): 9% | pest or weed control at 50 g/ha (Xanthium spinosum; read-out: Data (measured value) Xanthium spinosum, 50 g/ha): 26% | pest or weed control at 100 g/ha (Xanthium spinosum; read-out: Data (measured value) Xanthium spinosum, 100 g/ha): 56% | pest or weed control at 25 g/ha (Aeschynomene indica): 9% | pest or weed control at 50 g/ha (Aeschynomene indica; read-out: Data (measured value) Aeschynomene indica, 50 g/ha): 21% | pest or weed control at 100 g/ha (Aeschynomene indica; read-out: Data (measured value) Aeschynomene indica, 100 g/ha): 52% | pest or weed control at 25 g/ha (Abutilon theophrasti): 9% | pest or weed control at 50 g/ha (Abutilon theophrasti; read-out: Data (measured value) Abutilon theophrasti, 50 g/ha): 28% | pest or weed control at 100 g/ha (Abutilon theophrasti; read-out: Data (measured value) Abutilon theophrasti, 100 g/ha): 65%

CCc1cc(C)cc(CC)c1-c1c(OC(=O)C(C)(C)C)n2n(c1=O)CCOCC2 [Pinoxaden]
Data (measured value) Digitaria sanguinalis (Digitaria sanguinalis; 6.25 g/ha): 12 | Data (measured value) Digitaria sanguinalis (Digitaria sanguinalis; 12.5 g/ha): 26 | Data (measured value) Digitaria sanguinalis (Digitaria sanguinalis; 25 g/ha): 57 | Data (measured value) Echinochloa crus (Echinochloa crus; 6.25 g/ha): 10 | Data (measured value) Echinochloa crus (Echinochloa crus; 12.5 g/ha): 29 | Data (measured value) Echinochloa crus (Echinochloa crus; 25 g/ha): 63 | pest or weed control at 6.25 g/ha (Xanthium spinosum; read-out: Data (measured value) Xanthium spinosum, 6.25 g/ha): 0% | pest or weed control at 12.5 g/ha (Xanthium spinosum; read-out: Data (measured value) Xanthium spinosum, 12.5 g/ha): 0% | pest or weed control at 25 g/ha (Xanthium spinosum): 0% | pest or weed control at 6.25 g/ha (Aeschynomene indica; read-out: Data (measured value) Aeschynomene indica, 6.25 g/ha): 0% | pest or weed control at 12.5 g/ha (Aeschynomene indica; read-out: Data (measured value) Aeschynomene indica, 12.5 g/ha): 0% | pest or weed control at 25 g/ha (Aeschynomene indica): 0% | pest or weed control at 6.25 g/ha (Abutilon theophrasti; read-out: Data (measured value) Abutilon theophrasti, 6.25 g/ha): 0% | pest or weed control at 12.5 g/ha (Abutilon theophrasti; read-out: Data (measured value) Abutilon theophrasti, 12.5 g/ha): 0% | pest or weed control at 25 g/ha (Abutilon theophrasti): 0%

CCC(=O)Nc1ccc(Cl)c(Cl)c1 [Propanil]
plant mortality, measured value (Digitaria sanguinalis; 375 g/ha): 7 | plant mortality, measured value (Digitaria sanguinalis; 750 g/ha): 22 | plant mortality, measured value (Digitaria sanguinalis; 1500 g/ha): 45 | plant mortality, measured value (Echinochloa crus; 375 g/ha): 11 | plant mortality, measured value (Echinochloa crus; 750 g/ha): 21 | plant mortality, measured value (Echinochloa crus; 1500 g/ha): 46 | pest or weed control at 375 g/ha (Xanthium spinosum; [1]): 10% | pest or weed control at 750 g/ha (Xanthium spinosum; [2]): 24% | pest or weed control at 1500 g/ha (Xanthium spinosum; [3]): 58% | pest or weed control at 375 g/ha (Aeschynomene indica; [1]): 10% | pest or weed control at 750 g/ha (Aeschynomene indica; [2]): 27% | pest or weed control at 1500 g/ha (Aeschynomene indica; [3]): 56% | pest or weed control at 375 g/ha (Abutilon theophrasti; [1]): 10% | pest or weed control at 750 g/ha (Abutilon theophrasti; [2]): 23% | pest or weed control at 1500 g/ha (Abutilon theophrasti; [3]): 56%

O=C(O)c1c(Cl)ccc2cc(Cl)cnc12 [Quinclorac]
plant mortality, measured value (Digitaria sanguinalis; 50 g/ha): 6 | plant mortality, measured value (Digitaria sanguinalis; 100 g/ha): 21 | plant mortality, measured value (Digitaria sanguinalis; 200 g/ha): 49 | plant mortality, measured value (Echinochloa crus; 50 g/ha): 13 | plant mortality, measured value (Echinochloa crus; 100 g/ha): 26 | plant mortality, measured value (Echinochloa crus; 200 g/ha): 55 | pest or weed control at 50 g/ha (Xanthium spinosum; [4]): 11% | pest or weed control at 100 g/ha (Xanthium spinosum; [5]): 29% | pest or weed control at 200 g/ha (Xanthium spinosum; [6]): 62% | pest or weed control at 50 g/ha (Aeschynomene indica; [4]): 10% | pest or weed control at 100 g/ha (Aeschynomene indica; [5]): 27% | pest or weed control at 200 g/ha (Aeschynomene indica; [6]): 57% | pest or weed control at 50 g/ha (Abutilon theophrasti; [4]): 9% | pest or weed control at 100 g/ha (Abutilon theophrasti; [5]): 26% | pest or weed control at 200 g/ha (Abutilon theophrasti; [6]): 57%
